Measured values from ChEMBL document CHEMBL6134892, “Discovery and Evaluation of DA-302168S as an Efficacious Oral Small-Molecule Glucagon-Like Peptide-1 Receptor Agonist” (J Med Chem, 2025).
Values belong to the molecule of their own block, whether it stands above or below them.

Key:
[1] = AUC last in Cynomolgus monkey at 5 mg/kg, po measured up to 48 hrs by LC-MS/MS analysis; assay type: ADME, organism-based, Macaca fascicularis; conditions: in vivo
hERG (KCNH2) = hERG (KCNH2) (Homo sapiens, UniProt Q12809); assay: Inhibition of human ERG at 30 uM by whole-cell patch clamp technique relative to control; assay type: toxicity
[2] = Tmax in Sprague-Dawley rat at 10 mg/kg, po measured up to 24 hrs by LC-MS/MS analysis; assay type: ADME, organism-based; conditions: in vivo
[3] = biological target: T1, Glucagon-like peptide 1 receptor (Rattus norvegicus, UniProt P32301); assay: Agonist activity at rat GLP-1R expressed in HEK293 cells by cAMP accumulation assay; assay type: functional, cell-based
T1 sequence (P32301 whole entry): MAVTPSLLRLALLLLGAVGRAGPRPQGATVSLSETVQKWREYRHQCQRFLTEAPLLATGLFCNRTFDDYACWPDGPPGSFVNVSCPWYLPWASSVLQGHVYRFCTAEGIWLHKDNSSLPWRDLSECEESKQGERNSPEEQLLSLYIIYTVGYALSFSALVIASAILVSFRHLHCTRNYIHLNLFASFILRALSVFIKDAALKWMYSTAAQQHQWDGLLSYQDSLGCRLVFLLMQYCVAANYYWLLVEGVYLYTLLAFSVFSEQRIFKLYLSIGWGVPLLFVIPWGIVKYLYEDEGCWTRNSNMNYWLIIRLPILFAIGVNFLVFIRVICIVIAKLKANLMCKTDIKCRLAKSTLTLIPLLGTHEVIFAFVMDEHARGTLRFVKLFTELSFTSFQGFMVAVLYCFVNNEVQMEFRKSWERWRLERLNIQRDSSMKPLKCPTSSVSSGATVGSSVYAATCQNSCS

[4] = Oral bioavailability in Sprague-Dawley rat at 10 mg/kg measured up to 24 hrs by LC-MS/MS analysis; assay type: ADME, organism-based; conditions: in vivo
[5] = Agonist activity at cynomolgus monkey GLP-1R expressed in HEK293 cells by cAMP accumulation assay; conditions: Macaca fascicularis
[6] = Half life in Cynomolgus monkey at 0.5 mg/kg, iv measured up to 48 hrs by LC-MS/MS analysis; assay type: ADME, organism-based, Macaca fascicularis; conditions: in vivo
[7] = Agonist activity at dog GLP-1R expressed in HEK293 cells by cAMP accumulation assay; conditions: Canis lupus familiaris
[8] = biological target: CB2 (cannabinoid receptor 2) (Homo sapiens, UniProt P34972); assay: Inhibition of CB2 (unknown origin) at 10 uM relative to control; assay type: toxicity
[9] = biological target: T2, Glucagon-like peptide 1 receptor (Homo sapiens, UniProt P43220); assay: Agonist activity at human GLP-1R expressed in HEK293 cells by cAMP accumulation assay; assay type: functional, cell-based
Cytochrome P450 2B6 = biological target: T3, Cytochrome P450 2B6 (Homo sapiens, UniProt P20813); assay: Inhibition of CYP2B6 in human liver microsomes incubated for 10 mins in presence of NADPH by LC-MS/MS analysis; assay type: ADME, Microsome
T3 sequence (P20813 whole entry): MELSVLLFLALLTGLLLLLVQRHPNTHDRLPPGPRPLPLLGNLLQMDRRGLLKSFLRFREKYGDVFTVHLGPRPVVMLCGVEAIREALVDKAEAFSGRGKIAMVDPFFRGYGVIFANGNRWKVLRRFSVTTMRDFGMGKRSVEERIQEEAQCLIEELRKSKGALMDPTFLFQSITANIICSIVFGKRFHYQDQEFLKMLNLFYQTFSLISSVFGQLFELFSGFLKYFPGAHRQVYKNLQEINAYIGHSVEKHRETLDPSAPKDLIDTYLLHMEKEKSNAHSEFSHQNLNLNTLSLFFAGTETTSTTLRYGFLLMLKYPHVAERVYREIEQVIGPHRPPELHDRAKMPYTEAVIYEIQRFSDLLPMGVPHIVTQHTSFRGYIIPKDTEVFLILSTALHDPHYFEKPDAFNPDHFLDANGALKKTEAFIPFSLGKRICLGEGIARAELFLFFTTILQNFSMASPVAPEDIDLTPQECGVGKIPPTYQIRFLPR

[10] = Oral bioavailability in Cynomolgus monkey at 5 mg/kg measured up to 48 hrs by LC-MS/MS analysis; assay type: ADME, organism-based, Macaca fascicularis; conditions: in vivo
[11] = biological target: T2, Glucagon-like peptide 1 receptor; assay: Agonist activity at human GLP-1R expressed in HEK293 cells assessed as beta-arrestin recruitment; assay type: functional, cell-based
Cytochrome P450 3A4 = Cytochrome P450 3A4 (Homo sapiens, UniProt P08684); assay: Inhibition of CYP3A4 in human liver microsomes using testosterone as substrate incubated for 5 mins in presence of NADPH by LC-MS/MS analysis; assay type: ADME, Microsome
[12] = AUC last in male Sprague-Dawley rat at 1 mg/kg, iv measured up to 24 hrs by LC-MS/MS analysis; assay type: ADME, organism-based; conditions: in vivo
[13] = Metabolic stability in human liver microsomes assessed as intrinsic clearance at 1 uM measured after 5 to 45 mins in presence of NADPH by LC-MS/MS analysis; assay type: ADME, Microsome; conditions: time 5-45 min, read-out: CLH
[14] = Tmax in Cynomolgus monkey at 5 mg/kg, po measured up to 48 hrs by LC-MS/MS analysis; assay type: ADME, organism-based, Macaca fascicularis; conditions: in vivo
[15] = biological target: Voltage-gated inwardly rectifying potassium channel KCNH2 (Homo sapiens, UniProt Q12809); assay: Inhibition of human ERG by whole-cell patch clamp technique; assay type: toxicity
[16] = Metabolic stability in human liver microsomes assessed as half life at 1 uM measured after 5 to 45 mins in presence of NADPH by LC-MS/MS analysis; assay type: ADME, Microsome; conditions: time 5-45 min
[17] = biological target: LCK (tyrosine-protein kinase Lck) (Homo sapiens, UniProt P06239); assay: Inhibition of LCK (unknown origin) at 10 uM relative to control; assay type: toxicity
5-HT1B receptor = 5-HT1B receptor (Homo sapiens, UniProt P28222); assay: Inhibition of 5-HT1B (unknown origin) at 10 uM relative to control; assay type: toxicity
Cytochrome P450 2C19 = Cytochrome P450 2C19 (Homo sapiens, UniProt P33261); assay: Inhibition of CYP2C19 in human liver microsomes incubated for 45 mins in presence of NADPH by LC-MS/MS analysis; assay type: ADME, Microsome
[18] = AUC last in Sprague-Dawley rat at 10 mg/kg, po measured up to 24 hrs by LC-MS/MS analysis; assay type: ADME, organism-based; conditions: in vivo
[19] = Half life in Cynomolgus monkey at 5 mg/kg, po measured up to 48 hrs by LC-MS/MS analysis; assay type: ADME, organism-based, Macaca fascicularis; conditions: in vivo
[20] = Cmax in Sprague-Dawley rat at 10 mg/kg, po measured up to 24 hrs by LC-MS/MS analysis; assay type: ADME, organism-based; conditions: in vivo
Cytochrome P450 2C9 = Cytochrome P450 2C9 (Homo sapiens, UniProt P11712); assay: Inhibition of CYP2C9 in human liver microsomes incubated for 10 mins in presence of NADPH by LC-MS/MS analysis; assay type: ADME, Microsome
Cytochrome P450 2D6 = Cytochrome P450 2D6 (Homo sapiens, UniProt P10635); assay: Inhibition of CYP2D6 in human liver microsomes incubated for 20 mins in presence of NADPH by LC-MS/MS analysis; assay type: ADME, Microsome
Cytochrome P450 1A2 = biological target: T4, Cytochrome P450 1A2 (Homo sapiens, UniProt P05177); assay: Inhibition of CYP1A2 in human liver microsomes incubated for 10 mins in presence of NADPH by LC-MS/MS analysis; assay type: ADME, Microsome
T4 sequence (P05177 whole entry): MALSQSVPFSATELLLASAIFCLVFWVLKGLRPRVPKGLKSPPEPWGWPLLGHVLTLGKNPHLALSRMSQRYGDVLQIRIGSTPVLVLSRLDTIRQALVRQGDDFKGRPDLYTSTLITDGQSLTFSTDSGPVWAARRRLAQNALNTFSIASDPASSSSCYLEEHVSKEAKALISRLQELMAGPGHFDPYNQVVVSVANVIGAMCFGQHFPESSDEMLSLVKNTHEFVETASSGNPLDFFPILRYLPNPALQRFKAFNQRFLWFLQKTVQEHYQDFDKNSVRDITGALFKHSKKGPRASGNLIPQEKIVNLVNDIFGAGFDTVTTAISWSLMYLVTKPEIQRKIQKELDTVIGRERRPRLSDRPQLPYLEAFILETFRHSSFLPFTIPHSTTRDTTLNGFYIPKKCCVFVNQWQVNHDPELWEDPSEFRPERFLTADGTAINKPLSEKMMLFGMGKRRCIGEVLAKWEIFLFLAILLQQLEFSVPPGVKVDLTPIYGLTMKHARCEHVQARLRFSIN

[21] = biological target: T2, Glucagon-like peptide 1 receptor; assay: Agonist activity at human GLP-1R expressed in HEK293 cells coexpressing CRE LUC incubated for 5 hrs by luciferase based microplate reader analysis; assay type: functional, cell-based
[22] = Cmax in Cynomolgus monkey at 5 mg/kg, po measured up to 48 hrs by LC-MS/MS analysis; assay type: ADME, organism-based, Macaca fascicularis; conditions: in vivo
[23] = biological target: T5, Glucagon-like peptide 1 receptor (Mus musculus, UniProt O35659); assay: Agonist activity at mouse GLP-1R expressed in HEK293 cells by cAMP accumulation assay; assay type: functional, cell-based
T5 sequence (O35659 whole entry): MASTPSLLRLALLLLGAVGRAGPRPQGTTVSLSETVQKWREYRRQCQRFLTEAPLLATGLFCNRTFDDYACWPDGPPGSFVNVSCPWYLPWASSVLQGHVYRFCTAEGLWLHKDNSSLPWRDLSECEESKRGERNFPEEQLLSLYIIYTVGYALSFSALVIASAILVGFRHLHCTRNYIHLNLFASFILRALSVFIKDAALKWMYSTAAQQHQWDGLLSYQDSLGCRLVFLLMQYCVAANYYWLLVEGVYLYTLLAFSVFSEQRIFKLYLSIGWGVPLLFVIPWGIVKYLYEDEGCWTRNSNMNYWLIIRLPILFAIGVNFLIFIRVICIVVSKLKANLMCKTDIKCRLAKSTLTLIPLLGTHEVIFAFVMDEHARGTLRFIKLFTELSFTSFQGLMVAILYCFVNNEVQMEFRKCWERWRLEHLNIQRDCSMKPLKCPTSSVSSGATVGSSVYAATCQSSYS

[24] = Metabolic stability in human liver microsomes assessed as hepatic clearance at 1 uM measured after 5 to 45 mins in presence of NADPH by LC-MS/MS analysis; assay type: ADME, Microsome; conditions: time 5-45 min
Cytochrome P450 2C8 = biological target: T6, Cytochrome P450 2C8 (Homo sapiens, UniProt P10632); assay: Inhibition of CYP2C8 in human liver microsomes incubated for 20 mins in presence of NADPH by LC-MS/MS analysis; assay type: ADME, Microsome
T6 sequence (P10632 whole entry): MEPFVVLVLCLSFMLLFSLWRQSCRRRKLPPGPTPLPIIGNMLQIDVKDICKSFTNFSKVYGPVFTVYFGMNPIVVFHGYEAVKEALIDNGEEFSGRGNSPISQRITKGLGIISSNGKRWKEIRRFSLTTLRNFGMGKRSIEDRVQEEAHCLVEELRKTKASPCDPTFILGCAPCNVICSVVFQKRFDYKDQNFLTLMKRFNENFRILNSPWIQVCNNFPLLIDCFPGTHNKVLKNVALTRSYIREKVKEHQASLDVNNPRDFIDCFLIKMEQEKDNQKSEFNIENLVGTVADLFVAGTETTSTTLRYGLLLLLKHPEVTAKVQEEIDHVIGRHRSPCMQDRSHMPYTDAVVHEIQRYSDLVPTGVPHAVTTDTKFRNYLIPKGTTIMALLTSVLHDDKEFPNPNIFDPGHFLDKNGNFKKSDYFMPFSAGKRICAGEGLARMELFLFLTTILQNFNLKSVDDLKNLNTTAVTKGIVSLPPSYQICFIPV

T2 sequence (P43220 whole entry): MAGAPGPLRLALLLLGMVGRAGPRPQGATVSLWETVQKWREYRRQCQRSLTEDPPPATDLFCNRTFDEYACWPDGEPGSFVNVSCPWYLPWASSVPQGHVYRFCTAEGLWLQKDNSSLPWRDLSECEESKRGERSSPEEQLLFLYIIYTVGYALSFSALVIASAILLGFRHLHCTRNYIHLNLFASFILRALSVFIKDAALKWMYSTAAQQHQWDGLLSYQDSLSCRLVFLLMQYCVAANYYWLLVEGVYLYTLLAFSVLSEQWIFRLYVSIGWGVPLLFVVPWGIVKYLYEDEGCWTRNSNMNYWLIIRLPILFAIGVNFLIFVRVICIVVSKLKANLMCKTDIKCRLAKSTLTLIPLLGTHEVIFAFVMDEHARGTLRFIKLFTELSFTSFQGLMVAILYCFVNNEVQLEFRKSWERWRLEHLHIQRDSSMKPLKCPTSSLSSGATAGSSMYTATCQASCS
Chain of hERG (KCNH2) (Q12809 whole entry): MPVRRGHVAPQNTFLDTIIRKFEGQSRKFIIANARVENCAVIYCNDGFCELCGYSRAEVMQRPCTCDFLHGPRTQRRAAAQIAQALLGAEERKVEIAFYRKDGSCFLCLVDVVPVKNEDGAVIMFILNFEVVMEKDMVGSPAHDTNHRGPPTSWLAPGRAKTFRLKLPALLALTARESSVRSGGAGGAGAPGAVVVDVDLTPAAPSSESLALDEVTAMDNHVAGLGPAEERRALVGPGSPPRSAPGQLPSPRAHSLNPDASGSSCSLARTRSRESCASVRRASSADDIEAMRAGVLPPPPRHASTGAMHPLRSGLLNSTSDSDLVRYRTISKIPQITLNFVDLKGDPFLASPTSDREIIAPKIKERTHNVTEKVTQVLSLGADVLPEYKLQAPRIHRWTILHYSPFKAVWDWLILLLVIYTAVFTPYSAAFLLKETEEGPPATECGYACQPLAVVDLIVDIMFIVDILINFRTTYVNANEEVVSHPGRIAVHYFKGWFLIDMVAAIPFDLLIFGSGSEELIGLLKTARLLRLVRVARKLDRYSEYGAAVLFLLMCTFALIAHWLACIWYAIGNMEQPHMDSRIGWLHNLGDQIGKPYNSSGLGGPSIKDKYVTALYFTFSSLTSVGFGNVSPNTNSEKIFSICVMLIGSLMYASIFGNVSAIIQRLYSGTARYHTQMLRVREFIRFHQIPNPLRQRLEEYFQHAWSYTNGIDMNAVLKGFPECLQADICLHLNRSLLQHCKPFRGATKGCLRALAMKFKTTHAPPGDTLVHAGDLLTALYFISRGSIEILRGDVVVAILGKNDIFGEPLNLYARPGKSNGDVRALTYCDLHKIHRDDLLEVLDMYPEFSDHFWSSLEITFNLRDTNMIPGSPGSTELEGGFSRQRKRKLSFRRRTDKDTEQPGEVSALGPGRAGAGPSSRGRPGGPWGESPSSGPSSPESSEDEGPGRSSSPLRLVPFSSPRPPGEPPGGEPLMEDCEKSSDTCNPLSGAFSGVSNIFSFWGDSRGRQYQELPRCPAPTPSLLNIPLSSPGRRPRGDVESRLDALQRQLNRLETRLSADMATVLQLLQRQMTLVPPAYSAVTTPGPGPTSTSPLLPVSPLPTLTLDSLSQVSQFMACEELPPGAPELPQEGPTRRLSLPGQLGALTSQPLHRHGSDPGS
Chain of Voltage-gated inwardly rectifying potassium channel KCNH2 (Q12809 whole entry): as above
Chain of LCK (tyrosine-protein kinase Lck) (P06239 whole entry): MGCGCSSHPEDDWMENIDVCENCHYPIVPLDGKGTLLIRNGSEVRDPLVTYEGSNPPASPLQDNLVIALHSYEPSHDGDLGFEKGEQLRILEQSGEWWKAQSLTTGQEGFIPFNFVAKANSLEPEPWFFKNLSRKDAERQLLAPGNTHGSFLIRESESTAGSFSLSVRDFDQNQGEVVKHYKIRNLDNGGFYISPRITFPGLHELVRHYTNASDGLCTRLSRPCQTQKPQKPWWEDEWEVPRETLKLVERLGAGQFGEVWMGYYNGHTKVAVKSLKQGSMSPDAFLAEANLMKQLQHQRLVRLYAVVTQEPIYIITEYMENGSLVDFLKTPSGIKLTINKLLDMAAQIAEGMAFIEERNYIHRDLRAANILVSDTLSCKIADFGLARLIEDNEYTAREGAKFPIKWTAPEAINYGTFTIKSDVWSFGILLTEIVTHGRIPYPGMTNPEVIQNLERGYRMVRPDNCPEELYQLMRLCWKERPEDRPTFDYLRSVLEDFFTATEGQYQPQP
Chain of Cytochrome P450 3A4 (P08684 whole entry): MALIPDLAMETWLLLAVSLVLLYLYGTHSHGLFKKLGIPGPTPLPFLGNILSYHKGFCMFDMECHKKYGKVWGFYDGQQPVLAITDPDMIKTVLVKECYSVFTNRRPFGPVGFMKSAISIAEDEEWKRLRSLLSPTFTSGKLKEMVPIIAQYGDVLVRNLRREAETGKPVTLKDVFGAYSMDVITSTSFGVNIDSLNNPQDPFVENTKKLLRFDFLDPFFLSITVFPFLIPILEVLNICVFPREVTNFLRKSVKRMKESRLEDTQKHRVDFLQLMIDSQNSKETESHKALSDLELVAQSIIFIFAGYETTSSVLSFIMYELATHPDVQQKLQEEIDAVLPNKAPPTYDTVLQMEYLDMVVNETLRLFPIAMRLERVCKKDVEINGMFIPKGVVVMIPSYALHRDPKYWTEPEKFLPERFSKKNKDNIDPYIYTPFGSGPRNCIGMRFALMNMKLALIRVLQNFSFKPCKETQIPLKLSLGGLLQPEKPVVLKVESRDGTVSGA
Chain of 5-HT1B receptor (P28222 whole entry): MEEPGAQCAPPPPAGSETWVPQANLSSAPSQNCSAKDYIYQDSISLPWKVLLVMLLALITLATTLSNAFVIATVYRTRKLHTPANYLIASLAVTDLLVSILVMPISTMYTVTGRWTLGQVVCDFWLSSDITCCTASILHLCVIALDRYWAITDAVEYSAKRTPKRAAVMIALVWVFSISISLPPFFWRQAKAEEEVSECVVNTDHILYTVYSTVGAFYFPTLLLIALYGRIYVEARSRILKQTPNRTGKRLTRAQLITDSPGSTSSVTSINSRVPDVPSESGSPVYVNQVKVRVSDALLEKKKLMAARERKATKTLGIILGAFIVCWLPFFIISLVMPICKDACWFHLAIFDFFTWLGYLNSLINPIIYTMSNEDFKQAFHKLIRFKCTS
Chain of Cytochrome P450 2D6 (P10635 whole entry): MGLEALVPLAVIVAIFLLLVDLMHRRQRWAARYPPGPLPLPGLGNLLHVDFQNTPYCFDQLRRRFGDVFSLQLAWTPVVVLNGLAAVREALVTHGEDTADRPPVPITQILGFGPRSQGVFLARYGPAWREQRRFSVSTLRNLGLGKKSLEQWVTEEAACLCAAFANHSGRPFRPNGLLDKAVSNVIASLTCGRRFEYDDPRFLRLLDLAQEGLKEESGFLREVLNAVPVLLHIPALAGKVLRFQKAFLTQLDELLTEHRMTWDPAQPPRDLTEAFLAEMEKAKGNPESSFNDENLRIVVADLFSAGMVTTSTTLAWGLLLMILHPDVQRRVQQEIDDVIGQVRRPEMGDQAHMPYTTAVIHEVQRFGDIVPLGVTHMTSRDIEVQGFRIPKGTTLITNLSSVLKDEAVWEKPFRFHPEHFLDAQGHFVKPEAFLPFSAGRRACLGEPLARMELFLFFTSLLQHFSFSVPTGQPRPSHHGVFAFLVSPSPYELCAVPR
Chain of CB2 (cannabinoid receptor 2) (P34972 whole entry): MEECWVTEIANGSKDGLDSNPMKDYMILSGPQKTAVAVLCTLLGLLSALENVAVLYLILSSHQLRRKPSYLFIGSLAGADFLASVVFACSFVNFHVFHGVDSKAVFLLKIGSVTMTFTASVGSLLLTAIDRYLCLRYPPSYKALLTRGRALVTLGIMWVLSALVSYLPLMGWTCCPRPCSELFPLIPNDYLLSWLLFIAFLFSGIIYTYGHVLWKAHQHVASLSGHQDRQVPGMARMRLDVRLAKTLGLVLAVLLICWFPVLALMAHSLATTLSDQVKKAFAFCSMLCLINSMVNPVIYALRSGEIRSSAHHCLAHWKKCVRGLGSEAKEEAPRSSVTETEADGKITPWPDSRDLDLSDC

AUC(0-t) at 48 h [1]: 2440 ng·h/mL
Tmax [2]: 3.5 h
EC50 [3]: > 30 µM
bioavailability [4]: 20.1%
EC50 [5]: 0.012 nM
half-life [6]: 12.7 h
EC50 [7]: > 30 µM
EC50 [9]: 0.029 nM
IC50 (Cytochrome P450 2B6): > 30 µM
bioavailability [10]: 13.9%
EC50 [11]: 0.118 µM
IC50 (Cytochrome P450 3A4): > 30 µM
AUC(0-t) at 24 h [12]: 1480 ng·h/mL
CLint scaled at 1 µM [13]: 13.3 mL/min/kg
Tmax [14]: 2.5 h
half-life at 1 µM [16]: 2.18 h
IC50 (Cytochrome P450 2C19): > 30 µM
AUC(0-t) at 24 h [18]: 2960 ng·h/mL
half-life [19]: 10.4 h
Cmax [20]: 347 ng/mL
IC50 (Cytochrome P450 2C9): > 30 µM
IC50 (Cytochrome P450 2D6): > 30 µM
IC50 (Cytochrome P450 1A2): > 30 µM
EC50 [21]: 0.00132 µM
Cmax [22]: 327 ng/mL
EC50 [23]: > 30 µM
CLhep predicted at 1 µM [24]: 8.09 mL/min/kg
IC50 (Cytochrome P450 2C8): 28.3 µM
Structure (SMILES): O=C(O)c1ccc2nc(Cc3ccc(-c4ccc(F)c(OCc5ccc(Cl)c6ccoc56)n4)cc3F)n(C[C@@H]3CCO3)c2c1
inhibition at 30 µM (hERG (KCNH2)): < 50%
inhibition at 10 µM [8]: 74.4%
IC50 [15]: > 30 µM
inhibition at 10 µM [17]: 87.5%
inhibition at 10 µM (5-HT1B receptor): 62.4%

EC50 [21]: 0.0709 µM
Structure (SMILES): O=C(O)c1ccc2nc(Cc3ccc(-c4cncc(OCc5ccc(Cl)c6ccoc56)n4)cc3F)n(C[C@@H]3CCO3)c2c1

Structure (SMILES): O=C(O)c1ccc2nc(Cc3ccc(-c4cccc(OCc5ccc(Cl)c6ccoc56)n4)cc3F)n(C[C@@H]3CCO3)c2c1
inhibition at 30 µM (hERG (KCNH2)): < 50%
IC50 [15]: > 30 µM
